Measurements: patent US6225321A (priority 1997, dated 2001)
Read-outs that look alike come from different tables or passages of the source.

Assay: Pharmacokinetic study of long acting preparation in Beagle dogs
Format: in vivo, Beagle dog
Settings: for CL/F: read-out: CLt (converted); for bioavailability: read-out: F; for MRT: read-out: MRT; for Vd/F: read-out: Vss
Experimental: Six Beagle dogs were used. Five Beagle dogs were intramuscularly injected with 30 mg/kg long acting sebacoyl dinalbuphine ester parenteral administration respectively, and another one was injection with 100 mg/kg long acting sebacoyl dinalbuphine ester oily parenteral administration. Blood samples were collected through the vein in front limb of dogs at 1, 2, 6, 24, 30, 48, 54, 72, 78, 96, 102, 120, 168, 192 hours. […] Relationship between time and concentration was analyzed by PCNONLIN computer program. Two compartment model and pharmacokinetic parameters were calculated to depicted absorption, distribution, metabolism, and excretion of drugs in dogs.

[1] = Table 7, Dog 2, Dose 24.3 mg/kg
[2] = Table 7, Dog 2, Dose 81.0 mg/kg
[3] = dog, plasma, im, 24.3 mg/kg, Table 7, Dog 2, Dose 24.3 mg/kg
[4] = dog, plasma, im, 30 mg/kg, Mean of 5 dogs, 30 mg/kg i.m.

Structure (SMILES): O=C(CCCCCCCCC(=O)Oc1ccc2c3c1O[C@H]1[C@@H](O)CC[C@@]4(O)[C@@H](C2)N(CC2CCC2)CC[C@]314)Oc1ccc2c3c1O[C@H]1[C@@H](O)CC[C@@]4(O)[C@@H](C2)N(CC2CCC2)CC[C@]314 [sebacoyl dinalbuphine ester]
- A (Mean of 5 dogs, 30 mg/kg i.m.): 15.0 µg/mL
- AUMC (Mean of 5 dogs, 30 mg/kg i.m.): 983.2 h^2 μg/ml
- Abs. time (Mean of 5 dogs, 30 mg/kg i.m.): 92.6 h
- B (Mean of 5 dogs, 30 mg/kg i.m.): 0.32 µg/mL
- Vc (Mean of 5 dogs, 30 mg/kg i.m.): 14.84 L/kg
- k12 (Mean of 5 dogs, 30 mg/kg i.m.): 8.51 h⁻¹
- k21 (Mean of 5 dogs, 30 mg/kg i.m.): 0.28 h⁻¹
- ko (Mean of 5 dogs, 30 mg/kg i.m.): 180.6 µg/kg/h
- α (Mean of 5 dogs, 30 mg/kg i.m.): 9.98 h⁻¹
- A [1]: 14.1 µg/mL
- AUC/D [1]: 0.478 kg·h/mL
- AUMC [1]: 915 h^2 ng/ml
- Abs. time [1]: 95.6 h
- B [1]: 0.22 µg/mL
- Vc [1]: 10.21 L/kg
- k12 [1]: 5.53 h⁻¹
- k21 [1]: 0.13 h⁻¹
- ko [1]: 149.9 µg/kg/h
- α [1]: 6.85 h⁻¹
- A [2]: 59.0 µg/mL
- AUC/D [2]: 0.488 kg·h/mL
- AUMC [2]: 5026 h^2 ng/ml
- Abs. time [2]: 168.0 h
- B [2]: 0.51 µg/mL
- Vc [2]: 10.21 L/kg
- k12 [2]: 8.99 h⁻¹
- k21 [2]: 0.11 h⁻¹
- ko [2]: 354.2 µg/kg/h
- α [2]: 10.73 h⁻¹
- AUC [3]: 11900 ng·h/mL
- CL/F [3]: 1.21 mL/h/kg
- bioavailability [3]: 59%
- MRT [3]: 78.8 h
- Vd/F [3]: 450 L/kg
- k el (dog, plasma, im, 24.3 mg/kg, Table 7, Dog 2, Dose 24.3 mg/kg, read-out: k10 (converted)): 0.000336 s⁻¹
- half-life (dog, plasma, im, 24.3 mg/kg, Table 7, Dog 2, Dose 24.3 mg/kg, read-out: t1/2,α (converted)): 0.1 h
- half-life (dog, plasma, im, 24.3 mg/kg, Table 7, Dog 2, Dose 24.3 mg/kg, read-out: t1/2,β (converted)): 30.6 h
- k el (dog, plasma, im, 24.3 mg/kg, Table 7, Dog 2, Dose 24.3 mg/kg, read-out: β (converted)): 6.39e-06 s⁻¹
- AUC [4]: 13600 ng·h/mL
- CL/F [4]: 1.22 mL/h/kg
- Cmax (dog, plasma, im, 30 mg/kg, Mean of 5 dogs, 30 mg/kg i.m., read-out: Cmax): 149 ng/mL
- bioavailability [4]: 63.1%
- MRT [4]: 73.2 h
- Vd/F [4]: 574 L/kg
- k el (dog, plasma, im, 30 mg/kg, Mean of 5 dogs, 30 mg/kg i.m., read-out: k10 (converted)): 0.000339 s⁻¹
- half-life (dog, plasma, im, 30 mg/kg, Mean of 5 dogs, 30 mg/kg i.m., read-out: t1/2,α (converted)): 0.09 h
- half-life (dog, plasma, im, 30 mg/kg, Mean of 5 dogs, 30 mg/kg i.m., read-out: t1/2,β (converted)): 27.7 h
- k el (dog, plasma, im, 30 mg/kg, Mean of 5 dogs, 30 mg/kg i.m., read-out: β (converted)): 8.33e-06 s⁻¹
- AUC (dog, plasma, im, 30 mg/kg, individual Dog 1 to Dog 5, lines in this order, 30 mg/kg i.m.): 9730 ng·h/mL
